Data as given in patent US7105652B2, “Human tumor suppressor gene” (Garvan Institute of Medical Research, priority 1997, dated 2006).
“Also recorded” adds a separate entry of the source. Numbered stars: 1 amine (or outer) side, 2 acyl side, 3 side chain; on linkers, the order of the positions; unused ones are H or OH. Bridge positions count the residues as written; N and C are the ends. Square brackets hold non-standard residues; d marks the D form. Peptide text beside a SMILES is read from it. I, II: the chains in the order shown. Actinocin(9to1) = Cc1c2oc3c(C)ccc(C(=O)[*:1])c3nc-2c(C(=O)[*:2])c(N)c1=O; NMeV = CN[C@H](C(=O)O)C(C)C; Sar = CNCC(=O)O

Key:
T-47D cells = conditions: ORG 2058, same conditions, reference (3); cited from earlier work
EDD = experiment: Differential display RT-PCR of T-47D cells treated with ORG 2058; type: cell-based, human; conditions: ORG 2058 for 3 h
Description: (§1) The sources and maintenance of the human breast cancer and normal cell lines used were as described previously (12, 22), as were tissue culture experiments (12). Briefly, progestin (ORG 2058, 10 nM) and/or cycloheximide (20 μg/ml) or actinomycin D (5 μg/ml) was added to the medium and control flasks received the same volume of vehicle alone. To obtain RNA for differential display, cells were grown in insulin-supplemented serum-free medium and treated for 3 h with ORG 2058 or ethanol vehicle. Subsequent progestin stimulation experiments were carried out in medium containing 5% charcoal-stripped fetal calf serum without insulin.
Differential display was carried out as previously described (11) using a Heiroglyph mRNA Profile Kit No. 1 (Genomyx Corporation, Foster City, Calif.) and recommended protocol. First strand cDNA synthesis was carried out in 96-well format 0.2 ml thin walled tubes. Typically 200 ng total RNA from T-47D cells treated with the synthetic progestin ORG 2058 for 3 h or from control T-47D cells was reverse transcribed with Expand Reverse Transcriptase enzyme (Boehringer Mannheim Pty Ltd, Castle Hill, Australia) following annealing with 4 pmol anchored primer (5′[…]12AC (SEQ ID NO:6)). […] The PCR products were denatured and separated on a 4.5% denaturing polyacrylamide gel at 800 v for 16 h using the Genomyx Long Read Sequencing System reagents and apparatus. […]

EDD mRNA = experiment: Northern analysis of EDD mRNA in progestin-treated T-47D cells; type: cell-based, human
Description: as §1
Cells harvested from duplicate 150 cm^2 flasks were pooled, RNA extracted by a guanidinium-isothiocyanate-cesium chloride procedure and Northern analysis was performed as previously described with 20 μg of total RNA per lane (3, 23). The membranes were hybridized overnight (50° C.) with probes labelled with [a-^32P]dCTP (Amersham Australia Pty Ltd) using a Prime-a-Gene labelling kit (Promega Corp., Sydney, Australia). The membranes were washed at a highest stringency of 0.2 ¥ SSC (30 mM NaCl, 3 minN sodium citrate [pH 7.0])/1% sodium dodecyl sulfate at 65° C. and exposed to Kodak X-OMAT or BIOMAX film at −70° C. Human multiple tissue Northern blots or RNA Master blot (CLONTECH Laboratories Inc., Palo Alto, Calif.) were hybridized under conditions recommended by the manufacturer. The MRNA abundance was quantitated by densitometric analysis of autoradiographs using Molecular
Dynamics Densitometer and software (Molecular Dynamics, Sunnyvale, Calif.). The accuracy of loading was estimated by re-hybridizing membranes with a [g-^32P]ATP end-labelled oligonucleotide complementary to 18S rRNA (24, 25).

[1] = target: T1, GST-ubiquitin fusion protein (Homo sapiens, UniProt P0CG47); experiment: Ubiquitin-binding assay (thiol ester formation); type: biochemical; conditions: in vitro translated 35S-labelled protein, absence of DTT; abolished by 100 mM DTT
T1 construct: purified GST-ubiquitin fusion protein
Description: [^35S]-labelled in vitro translated truncated (˜100 kDa) or full length protein was tested for its ability to bind ubiquitin by incubating 5 μl translation reaction with or without 5 μg purified GST protein or GST-ubiquitin fusion protein for 10 min at 25° C. […] Reactions were terminated by incubating the mixtures in either SDS-sample buffer containing 100 mM DTT at 95° C. for 5 min or in SDS-sample buffer containing 4 M urea instead of DTT at 25° C. for 20 min. Samples were resolved by SDS-PAGE through 6% or 7% gels followed by drying and autoradiography.

CCC1CC2C3CCC4=CC(=O)CCC4C3CCC2(C)C1C(=O)CO (stereo not drawn) [ORG 2058, 16a-ethyl-21-hydroxy-19-norpregn-4-en-3,20-dione]
time of increase in the S phase fraction (T-47D cells): 12 to 14 h | abundance of EDD DD-PCR product, treated versus control (EDD): more abundant in treated samples than in control samples; also recorded: present at a higher level | maximal EDD mRNA levels above control (EDD mRNA; progestin (ORG 2058), observed at 6 h, transient): 3 to 4 fold

Cc1c2oc3c(C)ccc(C(=O)N[C@@H]4C(=O)N[C@H](C(C)C)C(=O)N5CCC[C@H]5C(=O)N(C)CC(=O)N(C)[C@@H](C(C)C)C(=O)O[C@@H]4C)c3nc-2c(C(=O)N[C@@H]2C(=O)N[C@H](C(C)C)C(=O)N3CCC[C@H]3C(=O)N(C)CC(=O)N(C)[C@@H](C(C)C)C(=O)O[C@@H]2C)c(N)c1=O [actinomycin D, Actinomycin D] (I: T[dV]P[Sar][NMeV] / II: T[dV]P[Sar][NMeV]; ester I:1-I:C, II:1-II:C; linker I:N-II:N via Actinocin(9to1))
effect on ORG 2058 induction of EDD mRNA levels (EDD mRNA; 10 nM ORG 2058 with actinomycin D (5 μg/ml), 3 h): blocked

C[C@@H]1C[C@@H]([C@H](O)CC2CC(=O)NC(=O)C2)C(=O)[C@@H](C)C1 [cycloheximide, Cycloheximide]
effect on ORG 2058 induction of EDD mRNA levels (EDD mRNA; 10 nM ORG 2058 with cycloheximide (20 μg/ml), 1 h): prevented

B1: truncated EDD: 890 amino acid truncated EDD protein, aa 1910 to aa 2799, carboxyl terminus with HECT domain (protein)
chain: MMSARGDFLNYALSLMRSHNDEHSDVLPVLDVCSLKHVAYVFQALIYWIKAMNQQTTLDTPQLERKRTRELLELGIDNEDSEHENDDDTNQSATLNDKDDDSLPAETGQNHPFFRRSDSMTFLGCIPPNPFEVPLAEAIPLADQPHLLQPNARKEDLFGRPSQGLYSSSASSGKCLMEVTVDRNCLEVLPTKMSYAANLKNVMNMQNRQKKEGEEQPVLPEETESSKPGPSAHDLAAQLKSSLLAEIGLTESEGPPLTSFRPQCSFMGMVISHDMLLGRWRLSLELFGRVFMEDVGAEPGSILTELGGFEVKESKFRREMEKLRNQQSRDLSLEVDRDRDLLIQQTMRQLNNHFGRRCATTPMAVHRVKVTFKDEPGEGSGVARSFYTAIAQAFLSNEKLPNLECIQNANKGTHTSLMQRLRNRGERDREREREREMRRSSGLRAGSRRDRDRDFRRQLSIDTRPFRPASEGNPSDDPEPLPAHRQALGERLYPRVQAMQPAFASKITGMLLELSPAQLLLLLASEDSLRARVDEAMELIIAHGRENGADSILDLGLVDSSEKVQQENRKRHGSSRSVVDMDLDDTDDGDDNAPLFYQPGKRGFYTPRPGKNTEARLNCFRNIGRILGLCLLQNELCPITLNRHVIKVLLGRKVNWHDFAFFDPVMYESLRQLILASQSSDADAVFSAMDLAFAIDLCKEEGGGQVELIPNGVNIPVTPQNVYEYVRKYAEHRMLVVAEQPLHAMRKGLLDVLPKNSLEDLTAEDFRLLVNGCGEVNVQMLISFTSFNDESGENAEKLLQFKRWFWSIVEKMSMTERQDLVYFWTSSPSLPASEEGFQPMPSITIRPPDDQHLPTANTCISRLYVPLYSSKQILKQKLLLAIKTKNFGFV
formation of GST-ubiquitin / ubiquitin thioester conjugate [1]: an additional higher molecular mass protein band was observed
